Some test systems named below: HCC-2998 colon; SF-268 CNS; A549 NSCLC; SR leukemia; COLO 205 colon; UACC-62 melanoma; U251 CNS; HOP-62 NSCLC; IGROV1 ovarian; OVCAR-4 ovarian.
Holding throughout (experiment): inhibition of tumour cell growth, NCI panel, 48 h

Each structure is given as a SMILES string.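 1) Cells in 96-well plates. 2) Compound, 48 h, 5 concentrations. 3) Linear interpolation between surrounding doses. 4) Unreached endpoint = highest concentration. TGI is the concentration that stops growth completely.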 Where only a bound is given, the exact number is not on record here.

Take `C1CC[C@H]2SSC3CCCC[C@H]3SSC2C1` (stereo not given in full): the TGI in the assay on HCC-2998 colon, with SF-268 CNS, with A549 NSCLC, in the assay with SR leukemia, in the assay on COLO 205 colon and in the assay on UACC-62 melanoma was > 100 µM each time. Further, the TGI in the assay with U251 CNS, with HOP-62 NSCLC, in the assay with IGROV1 ovarian and in the assay with OVCAR-4 ovarian was > 100 µM throughout.
`CC(=O)OC1COC(N2C(=O)C(=O)c3cc(Br)ccc32)C(OC(C)=O)C1OC(C)=O` (stereo not given): the TGI in the assay on HCC-2998 colon, in the assay on SF-268 CNS, in the assay on A549 NSCLC, in the assay with SR leukemia, in the assay with COLO 205 colon and in the assay on UACC-62 melanoma was > 100 µM throughout. Further, the TGI in the assay with U251 CNS, with HOP-62 NSCLC, in the assay with IGROV1 ovarian and in the assay with OVCAR-4 ovarian was > 100 µM in each case.
As for `CSc1ccc(/C=C2\N=C(c3ccccc3)N(c3nc4cc(C)c(C)cc4s3)C2=O)cc1`, the TGI was 82.4 µM in the assay with HCC-2998 colon; > 100 µM in the assay with SF-268 CNS; 89.7 µM with A549 NSCLC; 54.2 µM in the assay on SR leukemia; > 100 µM in the assay with COLO 205 colon; > 100 µM with UACC-62 melanoma. Further, the TGI in the assay on U251 CNS was 36.5 µM; with HOP-62 NSCLC it was 59.4 µM; in the assay with IGROV1 ovarian, 81.4 µM; with OVCAR-4 ovarian, > 100 µM.

The values are drawn from PubChem BioAssay (NCI).
